Assay results taken from paper PMC11329504, “Identification of novel small molecule-based strategies of COL7A1 upregulation and readthrough activity for the treatment of recessive dystrophic epidermolysis bullosa” (Scientific Reports, 2024).

Legend:
JAK2 = JAK2 (Homo sapiens, UniProt O60674); assay: Enzymatic JAK2 kinase activity; type: biochemical; conditions: dose-response curves; read-out: IC50 ± SD, JAK2
Method: (§1) Enzymatic Syk kinase activity assays were performed as previously described. Enzymatic activity of JAK1, JAK2, JAK3, and Tyk kinases was evaluated as previously described.

Tyk2 = Tyk2 (Homo sapiens, UniProt P29597); assay: Enzymatic Tyk2 kinase activity; type: biochemical; conditions: dose-response curves; read-out: IC50 ± SD, Tyk2
Method: as §1

Syk = Syk (Homo sapiens, UniProt P43405); assay: Enzymatic Syk kinase activity; type: biochemical; conditions: dose-response curves; read-out: IC50 ± SD, Syk
Method: as §1

NHK cells = assay: Cytotoxicity, ATP levels, normal human keratinocytes (NHK); type: cell-based; conditions: NHK cells, ATP levels, at 100 µM
Method in brief: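 RDEB patient-derived cells, CHO cells or normal human keratinocytes were plated and treated as in the AlphaLISA assay. Viability was read as ATP by ATPlite 1step luminescence; 10 μM staurosporine served as the total-cytotoxicity control.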

SAPK2α = molecular target: T1, SAPK2α (Homo sapiens, UniProt Q16539); assay: Selectivity panel (Eurofins): p38/SAPK2α kinase; type: biochemical
T1 construct: Eurofins Pharma Discovery Services

Dopamine transporter = molecular target: T2, Dopamine transporter (Homo sapiens, UniProt Q01959); assay: Selectivity panel (Eurofins): dopamine transporter; type: binding; conditions: n = 1, duplicate
T2 construct: Eurofins Pharma Discovery Services
Method: (§2) Selectivity was evaluated at Eurofins Pharma Discovery Services at 3 µM, 10 µM, and 30 µM in duplicate using a selection of 84 representative kinases and 44 GPCRs, transporters, nuclear receptors (NR), enzymes, and ion channels.

PDE4D2 = molecular target: T3, PDE4D2 (Homo sapiens, UniProt Q08499); assay: Selectivity panel (Eurofins): PDE4D2; type: biochemical; conditions: n = 1, duplicate
T3 construct: Eurofins Pharma Discovery Services
Method: as §2

[1] = Cytotoxicity, ATP levels (ATPlite), RDEB_L1 cells; type: cell-based; conditions: human, RDEB L1 cells (RDEB patient-derived cell line)
Method: The viability of RDEB patient-derived cell lines or NHK was evaluated by measuring the ATP levels as an indirect readout of the potential cytotoxicity effect of compounds. Cells were plated and treated exactly with the same conditions as those followed in the AlphaLISA assay, described above. To measure ATP levels, cells were processed using the ATPlite™ 1step luminescence-based assay (PerkinElmer 6,016,731), following the manufacturer’s protocol. 25 μL of ATPlite™ reagent was added directly over cells and plates were covered with a sealing film and shaken for 25 min using a microtiter plate shaker. Luminescence was measured in a Luminoskan Ascent luminometer (Thermo Fisher Scientific). 10 μM of Staurosporine was used as a reference compound and control for the total cytotoxicity.

T3 sequence (Q08499 303-809 limits assumed): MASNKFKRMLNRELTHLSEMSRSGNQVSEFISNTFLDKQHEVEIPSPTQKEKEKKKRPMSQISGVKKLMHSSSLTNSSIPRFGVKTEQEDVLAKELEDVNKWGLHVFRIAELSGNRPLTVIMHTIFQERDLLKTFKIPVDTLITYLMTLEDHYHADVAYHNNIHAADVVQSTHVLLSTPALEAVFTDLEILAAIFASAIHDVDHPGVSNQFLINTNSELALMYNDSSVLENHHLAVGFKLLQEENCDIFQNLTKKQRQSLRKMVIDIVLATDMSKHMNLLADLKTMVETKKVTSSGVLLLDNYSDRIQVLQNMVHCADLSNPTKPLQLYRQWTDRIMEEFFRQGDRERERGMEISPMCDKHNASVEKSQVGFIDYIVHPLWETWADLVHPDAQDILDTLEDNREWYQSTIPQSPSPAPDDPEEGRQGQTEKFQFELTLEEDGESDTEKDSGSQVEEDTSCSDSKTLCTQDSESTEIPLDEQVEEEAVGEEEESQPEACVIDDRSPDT
T1 sequence (Q16539 whole entry): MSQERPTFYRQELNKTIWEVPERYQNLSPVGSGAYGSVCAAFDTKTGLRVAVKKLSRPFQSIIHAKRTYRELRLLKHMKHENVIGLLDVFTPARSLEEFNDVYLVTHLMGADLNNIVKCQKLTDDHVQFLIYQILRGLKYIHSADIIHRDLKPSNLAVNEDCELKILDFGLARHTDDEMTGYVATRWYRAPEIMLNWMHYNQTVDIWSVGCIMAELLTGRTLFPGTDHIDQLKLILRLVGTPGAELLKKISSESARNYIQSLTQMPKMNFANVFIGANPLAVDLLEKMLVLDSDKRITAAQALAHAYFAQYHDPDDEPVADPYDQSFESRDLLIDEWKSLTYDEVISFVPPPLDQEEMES
T2 sequence (Q01959 whole entry): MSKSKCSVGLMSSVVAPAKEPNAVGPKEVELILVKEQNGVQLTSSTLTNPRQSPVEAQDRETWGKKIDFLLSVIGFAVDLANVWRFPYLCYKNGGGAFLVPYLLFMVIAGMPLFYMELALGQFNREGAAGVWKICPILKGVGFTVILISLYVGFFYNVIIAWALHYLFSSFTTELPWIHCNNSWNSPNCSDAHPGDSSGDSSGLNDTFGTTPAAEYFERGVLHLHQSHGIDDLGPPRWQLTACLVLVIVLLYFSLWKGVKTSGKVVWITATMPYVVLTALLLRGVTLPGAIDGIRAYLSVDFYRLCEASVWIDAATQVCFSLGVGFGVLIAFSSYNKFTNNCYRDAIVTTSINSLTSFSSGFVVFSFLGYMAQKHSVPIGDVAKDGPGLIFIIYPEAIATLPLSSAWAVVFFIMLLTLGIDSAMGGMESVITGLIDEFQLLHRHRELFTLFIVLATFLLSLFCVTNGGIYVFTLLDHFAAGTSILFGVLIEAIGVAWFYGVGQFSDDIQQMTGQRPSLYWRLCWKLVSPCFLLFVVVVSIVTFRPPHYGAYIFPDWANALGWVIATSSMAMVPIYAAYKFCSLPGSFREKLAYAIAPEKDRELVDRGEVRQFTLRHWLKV
Sequence of Tyk2 (P29597 whole entry, species assumed): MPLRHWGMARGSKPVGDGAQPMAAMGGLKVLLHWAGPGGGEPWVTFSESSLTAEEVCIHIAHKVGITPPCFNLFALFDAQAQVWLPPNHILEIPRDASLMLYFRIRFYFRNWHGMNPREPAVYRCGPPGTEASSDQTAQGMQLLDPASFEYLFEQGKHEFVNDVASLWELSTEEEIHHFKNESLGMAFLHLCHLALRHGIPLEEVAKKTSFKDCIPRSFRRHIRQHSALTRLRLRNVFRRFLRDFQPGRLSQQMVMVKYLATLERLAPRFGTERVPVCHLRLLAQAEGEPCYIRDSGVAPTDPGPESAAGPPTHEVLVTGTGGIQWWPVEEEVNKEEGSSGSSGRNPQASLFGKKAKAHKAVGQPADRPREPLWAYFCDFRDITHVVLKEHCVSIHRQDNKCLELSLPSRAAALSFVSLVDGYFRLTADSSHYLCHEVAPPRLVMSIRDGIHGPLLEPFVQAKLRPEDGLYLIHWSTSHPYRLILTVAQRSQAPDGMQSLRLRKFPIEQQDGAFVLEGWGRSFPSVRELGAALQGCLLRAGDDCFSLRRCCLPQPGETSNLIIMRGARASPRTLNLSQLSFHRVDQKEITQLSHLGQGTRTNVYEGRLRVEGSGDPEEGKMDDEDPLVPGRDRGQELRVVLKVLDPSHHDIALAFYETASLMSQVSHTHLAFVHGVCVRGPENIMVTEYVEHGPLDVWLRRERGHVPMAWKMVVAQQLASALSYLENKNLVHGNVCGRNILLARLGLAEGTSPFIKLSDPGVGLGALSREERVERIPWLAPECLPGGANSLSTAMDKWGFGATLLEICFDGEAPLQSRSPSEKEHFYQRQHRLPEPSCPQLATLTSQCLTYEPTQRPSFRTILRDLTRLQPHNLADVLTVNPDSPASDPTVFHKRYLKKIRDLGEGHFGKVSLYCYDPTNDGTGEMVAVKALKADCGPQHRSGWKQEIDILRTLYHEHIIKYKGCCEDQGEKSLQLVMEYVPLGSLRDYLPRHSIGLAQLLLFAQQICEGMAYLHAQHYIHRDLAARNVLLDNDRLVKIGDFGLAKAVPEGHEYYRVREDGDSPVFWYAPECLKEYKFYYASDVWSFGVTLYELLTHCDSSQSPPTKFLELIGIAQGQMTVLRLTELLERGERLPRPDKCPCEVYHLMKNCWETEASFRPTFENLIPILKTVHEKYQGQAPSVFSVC
Sequence of JAK2 (O60674 whole entry, species assumed): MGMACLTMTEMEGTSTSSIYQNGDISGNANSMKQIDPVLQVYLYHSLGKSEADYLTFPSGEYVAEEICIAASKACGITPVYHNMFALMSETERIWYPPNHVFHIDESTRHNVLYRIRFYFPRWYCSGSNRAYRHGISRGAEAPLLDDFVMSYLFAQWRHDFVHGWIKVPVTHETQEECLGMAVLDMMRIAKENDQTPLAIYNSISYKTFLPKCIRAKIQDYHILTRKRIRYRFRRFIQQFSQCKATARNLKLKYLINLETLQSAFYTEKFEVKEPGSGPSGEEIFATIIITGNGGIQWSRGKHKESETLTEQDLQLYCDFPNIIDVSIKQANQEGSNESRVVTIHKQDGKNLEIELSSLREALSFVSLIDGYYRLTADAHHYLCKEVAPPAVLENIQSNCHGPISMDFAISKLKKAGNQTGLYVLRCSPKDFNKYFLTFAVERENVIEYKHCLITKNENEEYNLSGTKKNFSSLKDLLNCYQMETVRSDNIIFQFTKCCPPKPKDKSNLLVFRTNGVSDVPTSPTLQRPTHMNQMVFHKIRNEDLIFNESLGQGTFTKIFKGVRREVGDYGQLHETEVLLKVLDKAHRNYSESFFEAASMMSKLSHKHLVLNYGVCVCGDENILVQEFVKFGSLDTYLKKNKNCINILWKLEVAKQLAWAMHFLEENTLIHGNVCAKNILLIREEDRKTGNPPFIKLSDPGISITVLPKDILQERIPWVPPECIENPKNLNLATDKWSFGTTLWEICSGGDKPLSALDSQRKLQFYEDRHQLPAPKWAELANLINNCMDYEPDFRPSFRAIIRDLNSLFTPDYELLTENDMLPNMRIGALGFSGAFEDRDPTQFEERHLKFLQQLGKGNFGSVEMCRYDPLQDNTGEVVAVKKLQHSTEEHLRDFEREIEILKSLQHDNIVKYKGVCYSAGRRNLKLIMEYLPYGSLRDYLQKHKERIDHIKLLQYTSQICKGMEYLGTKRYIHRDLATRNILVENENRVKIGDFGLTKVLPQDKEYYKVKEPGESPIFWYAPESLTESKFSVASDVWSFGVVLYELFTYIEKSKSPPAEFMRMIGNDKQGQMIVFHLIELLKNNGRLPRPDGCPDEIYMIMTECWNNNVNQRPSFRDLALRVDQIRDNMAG

SMILES	IC50 (JAK2)	IC50 (Tyk2)	IC50 (Syk)	Cytotox. % inhibition of viability (NHK cells)	inhibition at 3 µM (SAPK2α; at 3 μM, n = 1, duplicate, read-out: % inhibition, SAPK2α)	inhibition at 10 µM (SAPK2α; at 10 μM, n = 1, duplicate, read-out: % inhibition, SAPK2α)	inhibition at 30 µM (SAPK2α; at 30 μM, n = 1, duplicate, read-out: % inhibition, SAPK2α)	antagonism/inhibition of p38/SAPK2α kinase (SAPK2α; at concentrations of 3 and 10 µM)	inhibition at 3 µM (Dopamine transporter; at 3 μM)	inhibition at 10 µM (Dopamine transporter; at 10 μM)	inhibition at 30 µM (Dopamine transporter; at 30 μM)	inhibition at 3 µM (PDE4D2; at 3 μM)	inhibition at 10 µM (PDE4D2; at 10 μM)	inhibition at 30 µM (PDE4D2; at 30 μM)	IC50 [1]
NC(=O)Cn1ccc2ccc(-c3cnc(N)c(C(=O)NC4C5CC6CC4CC(O)(C6)C5)n3)cc21 (stereo not drawn) [Compound 1]	120 ± 60 nM	30 ± 0.6 nM	1720 ± 440 nM	–	–	–	–	–	–	–	–	–	–	–	–
C#Cc1cc(-c2ccncc2)c(-c2cccc(F)c2)nc1N [Compound 7]	–	–	–	19% ± 11 at 100 (n=4)	90%	103%	107%	≥ 50%	17%	40%	64%	16%	34%	61%	> 100000 nM
